Literature values in US20230190684A1, “METHODS OF TREATING COVID-19 WITH A NICLOSAMIDE COMPOUND” (priority 2020, published 2023).
Structures can show the parent of a compound that is named as a salt.

Assays:
[1] = patients treated with niclosamide; literature (McEvoy 1995)
[2] = in vivo

Row | SMILES | Less frequently reported AEs: rash, oral irritation, fever, rectal bleeding, weakness, bad taste in mouth, sweating, palpitation, constipation, alopecia, oedema of an arm, backache, irritability [1] [%] | Other reported AEs: vomiting; abdominal discomfort possibly associated with anorexia, diarrhea, drowsiness, dizziness and headache [1] | solubility in acetone (acetone) | solubility in ether, ethanol and chloroform (ether, ethanol and chloroform) | water solubility (water, 20° C.) [µg/mL] | systemic bioavailability [2] | dissolves in distilled water (distilled water, 20° C.) [mg/L]
1 | O=C(Nc1ccc([N+](=O)[O-])cc1Cl)c1cc(Cl)ccc1O [Niclosamide, 5-chloro-N-(2-chloro-4-nitrophenyl)-2-hydroxybenzamide] | < 1 | 1-4 % of patients | soluble | sparingly soluble | 5 to 8 | low | –
2 | O=C(Nc1ccc([N+](=O)[O-])cc1Cl)c1cc(Cl)ccc1O [ethanolamine salt, 5-chloro-salicyl-(2-chloro-4-nitro) anilide 2-aminoethanol salt] | – | – | – | – | – | – | 180 to 280
